A short description of data set [1]: 1-Naphthaldehyde decay/depletion in human liver microsomes and Supersomes. The data set is classed as in vitro ADME. (Liver microsomes are a subcellular fraction often used to study metabolism.)
Data set [2] is described as follows: Time-course decay of TBF-A in HLM, control Supersomes and isozyme Supersomes. In kind it is in vitro ADME, human.
The target of data set [3] is CYP2C19 (Homo sapiens, UniProt P33261). In words: Steady-state kinetics by recombinant CYP2C19 Supersomes. In kind it is in vitro ADME.
For data set [4] the following is noted: cited from earlier work.
Substrate in data set [5]: CN(C/C=C/C#CC(C)(C)C)Cc1cccc2ccccc12
Nature of the data set: cells, lysate or membranes named. The settings on record: CYP2C19, pH 7.4.

The mark [6] stands for this setting: 50 μM TBF-A, normalized per mg/protein.
Setting [7] is: step 2.2a, metabolite 1-naphthyl-methylamine, CYP2C19.
Where [8] appears, read: step 2.2b, metabolite 1-naphthaldehyde, CYP2C19.

Where two headings read alike, the source gives them in different places. Where only a bound is given, the exact number is not on record here.

Take `O=Cc1cccc2ccccc12` [1-naphthaldehyde]: the “effect of microsomes and NADPH on decay or disappearance” value in data set [1] (50 μM 1-naphthaldehyde, active or heat-inactivated human liver microsomes, presence or absence of NADPH) is on record as “not significantly affected”. Moreover, the “depletion in Supersomes compared with human liver microsomes” value in data set [1] (10 and 50 μM 1-naphthaldehyde, NADPH, CYP2C19 and 3A4 Supersomes, after 30 min) was “more significant decrease”.

Consider `CC(C)(C)C#CC=CC=O` [TBF-A, 6,6-dimethyl-2-hepten-4-ynal], for which, in data set [2] (50 μM TBF-A decay), the “end-point plateau for CYP3A4 higher than that of HLM” value is roughly 4 fold; the “end-point plateau of CYP2C19 higher than for both HLM and control Supersomes” value was “roughly 2 fold”. Besides, in data set [2] (setting [6]), the “decay faster in HLM compared to CYP2C19 Supersomes” value amounted to 13% and the “decay faster in HLM compared to CYP3A4 Supersomes” value is reported as 55%.

As usually defined, the Km is the substrate concentration at which the rate is half of its maximum. For the molecule `CC(C)(C)C#C/C=C/CNCc1cccc2ccccc12` [desmethyl-terbinafine], in data set [3] (CYP2C19), the “Km higher than the value for terbinafine N-denaphthylation (Pathway 3)” value was “about 5 fold” and the “decrease in N-denaphthylation catalytic efficiency from terbinafine to desmethyl-terbinafine” value is roughly 15 fold. The “higher rate of turnover (Vmax) than for the parent drug” value in data set [3] (N-denaphthylation by CYP2C19) is “about 3 fold”. Further, the “efficiency of 1-naphthyl methylamine formation by CYP2C19 relative to 3A4” value in data set [3] (Pathway 2.2a) was “about 3 fold”. Further, the “higher Vmax for CYP2C19” value in data set [3] (formation of the desmethyl-terbinafine dihydrodiols, loss of the methyl group) is listed as “approximately 10 fold”. Besides, the Km in data set [3] (read-out: Km (affinity), CYP2C19, oxidative nondealkylation reactions) was less than 100 µM. Besides, in data set [3] (setting [7]), the Km turned out to be 220 ± 55 µM, the V/K worked out at 3.7 and the Vmax is given as 810 ± 92 pmol/min/nmol of protein. Moreover, in data set [3] (setting [8]), the Km was determined as 150 ± 58 µM, the V/K came to 8.7 and the Vmax is recorded as 1300 ± 59 pmol/min/nmol of protein.

As to `CN(C/C=C/C#CC(C)(C)C)Cc1cccc2ccccc12` [terbinafine], the Km at 30 min in data set [3] (human, recombinant CYP2C19 Supersomes, pH 7.4, Km (affinity), CYP2C19, oxidative nondealkylation reactions) is less than 100 µM. Besides, the “time remaining at therapeutic levels in the body after therapy ceases” value in data set [4] (due to bioaccumulation) was “up to a month”. Also, in data set [4] (reported), the plasma levels was 1 µg/mL and the protein binding is given as greater than 99%.

B1: CYP2C19 (Homo sapiens) (protein)
chain: MDPFVVLVLCLSCLLLLSIWRQSSGRGKLPPGPTPLPVIGNILQIDIKDVSKSLTNLSKIYGPVFTLYFGLERMVVLHGYEVVKEALIDLGEEFSGRGHFPLAERANRGFGIVFSNGKRWKEIRRFSLMTLRNFGMGKRSIEDRVQEEARCLVEELRKTKASPCDPTFILGCAPCNVICSIIFQKRFDYKDQQFLNLMEKLNENIRIVSTPWIQICNNFPTIIDYFPGTHNKLLKNLAFMESDILEKVKEHQESMDINNPRDFIDCFLIKMEKEKQNQQSEFTIENLVITAADLLGAGTETTSTTLRYALLLLLKHPEVTAKVQEEIERVIGRNRSPCMQDRGHMPYTDAVVHEVQRYIDLIPTSLPHAVTCDVKFRNYLIPKGTTILTSLTSVLHDNKEFPNPEMFDPRHFLDEGGNFKKSNYFMPFSAGKRICVGEGLARMELFLFLTFILQNFNLKSLIDPKDLDTTPVVNGFASVPPFYQLCFIPV
B1: the Km in data set [5] (other: step 1.1, metabolite N-methyl-1-naphthyl-methylamine) is 120 ± 22 µM; in data set [5] (other: step 2.1, metabolite desmethyl-terbinafine), 37 ± 6.7 µM; in data set [5] (other: step 3.1, metabolite 1-naphthaldehyde) it was 3.0 ± 0.83 µM.

The record behind these values is PMC6692898 (Chemical research in toxicology, 2019).
